Data: ChEMBL document CHEMBL1152524, “Preparation of C-23 esterified silybin derivatives and evaluation of their lipid peroxidation inhibitory and DNA protective properties” (Bioorg Med Chem, 2009)
Activity calls are given as the source filed them. The calls are words filed in the database; no cut-off is given here.

Legend:
[1] = test system: Radical scavenging activity; assay: Antioxidant activity assessed as DPPH radical scavenging activity at 100 ug/mL after 30 mins; format: functional
[2] = Antioxidant activity assessed as protection against H2O2-induced pcDNA3.1(+) scission after 30 mins by […] staining-based gel electrophoresis; format: functional
[3] = Antioxidant activity assessed as ferrous ion chelating activity after 30 mins by spectrophotometry; format: functional
[4] = Antioxidant activity assessed as superoxide anion scavenging activity at 100 ug/mL after 5 mins by NBT reduction assay; format: functional
[5] = test system: Liver; assay: Inhibition of FeSO4-induced lipid peroxidation in Sprague-Dawley rat liver homogenate assessed as decrease in malondialdehyde level after 1 hr by TBA assay; format: functional, tissue-based
[6] = Antioxidant activity assessed as protection against H2O2-induced pcDNA3.1(+) scission at 100 ug/mL after 30 mins by […] staining-based gel electrophoresis; format: functional
[7] = test system: Radical scavenging activity; assay: Antioxidant activity assessed as DPPH radical scavenging activity after 30 mins; format: functional
[8] = Antioxidant activity assessed as superoxide anion scavenging activity after 5 mins by NBT reduction assay; format: functional

Row | Compound | Activity [1] [%] | Activity [2] | EC50 [3] [µM] | Activity [4] | IC50 [5] [µM] | Activity [6] | EC50 [7] [µM] | EC50 [8] [µM] | Activity [5]
1 | COc1cc(C2Oc3cc([C@H]4Oc5cc(O)cc(O)c5C(=O)[C@@H]4O)ccc3OC2COC(=O)c2ccccc2)ccc1O (relative stereo) | 40.4 | Dose-dependent effect | 105 | inactive | 12.7 | Active | – | – | –
2 | O=c1c(O)c(-c2ccc(O)c(O)c2)oc2cc(O)cc(O)c12 [QUERCETIN] | 96.8 | – | 236 | 93.8% | 1.8 | – | 5.5 | 31.8 | Dose-dependent effect
3 | COc1cc(C2Oc3cc([C@H]4Oc5cc(O)cc(O)c5C(=O)[C@@H]4O)ccc3OC2COC(=O)c2cc([N+](=O)[O-])cc([N+](=O)[O-])c2)ccc1O (relative stereo) | 22.1 | – | 205 | 32% | 14.6 | inactive | – | – | –
4 | COc1cc(C2Oc3cc([C@H]4Oc5cc(O)cc(O)c5C(=O)[C@@H]4O)ccc3OC2COC(=O)/C=C/c2ccc(Cl)cc2)ccc1O (relative stereo) | 18.4 | Dose-dependent effect | 87.9 | 9.1% | 12 | Active | – | – | –
5 | COc1cc(C2Oc3cc([C@H]4Oc5cc(O)cc(O)c5C(=O)[C@@H]4O)ccc3OC2CO)ccc1O (some centres not stated) [SILIBININ] | 16.6 | – | 196 | 38.2% | 22.7 | – | – | – | –
6 | COc1cc(C2Oc3cc([C@H]4Oc5cc(O)cc(O)c5C(=O)[C@@H]4O)ccc3OC2COC(=O)/C=C/c2ccc(Br)cc2)ccc1O (relative stereo) | 19.8 | Dose-dependent effect | 88.9 | 6.5% | 16.3 | Active | – | – | –
7 | COc1cc(C2Oc3cc([C@H]4Oc5cc(O)cc(O)c5C(=O)[C@@H]4O)ccc3OC2COC(=O)/C=C/c2ccc(C)cc2)ccc1O (relative stereo) | 33.3 | – | 136 | 7.3% | 14.7 | Active | – | – | –
8 | COc1ccc(C(=O)OCC2Oc3ccc([C@H]4Oc5cc(O)cc(O)c5C(=O)[C@@H]4O)cc3OC2c2ccc(O)c(OC)c2)cc1 (relative stereo) | 37.1 | – | 73.3 | 6.5% | 21 | inactive | – | – | –
9 | COc1cc(C2Oc3cc([C@H]4Oc5cc(O)cc(O)c5C(=O)[C@@H]4O)ccc3OC2COC(=O)c2cc(OC)c(OC)c(OC)c2)ccc1O (relative stereo) | 52.6 | Dose-dependent effect | 94.8 | 36.1% | 25.7 | Active | 145 | – | –
10 | COc1cc(C2Oc3cc([C@H]4Oc5cc(O)cc(O)c5C(=O)[C@@H]4O)ccc3OC2COC(=O)c2ccc([N+](=O)[O-])cc2)ccc1O (relative stereo) | 38.6 | – | > 300 | inactive | 12.6 | inactive | – | – | –
11 | CCOC(=O)CC(=O)OCC1Oc2ccc([C@H]3Oc4cc(O)cc(O)c4C(=O)[C@@H]3O)cc2OC1c1ccc(O)c(OC)c1 (relative stereo) | 16.2 | – | 101 | 60.1% | 33.4 | Active | – | 113 | –
12 | COc1cc(C2Oc3cc([C@H]4Oc5cc(O)cc(O)c5C(=O)[C@@H]4O)ccc3OC2COC(=O)c2cc(N)cc([N+](=O)[O-])c2)ccc1O (some centres not stated) | 59.9 | – | > 300 | 54.3% | 0.2 | inactive | 127 | 129 | Dose-dependent effect
13 | COc1cc(C2Oc3cc([C@H]4Oc5cc(O)cc(O)c5C(=O)[C@@H]4O)ccc3OC2COC(=O)c2ccc(N)cc2)ccc1O (relative stereo) | 16.4 | – | 128 | 43.3% | 14.3 | inactive | – | – | –
14 | COc1cc(C2Oc3cc([C@H]4Oc5cc(O)cc(O)c5C(=O)[C@@H]4O)ccc3OC2COC(=O)c2ccc(OC)c(OC)c2)ccc1O (mixture of isomers) | 34.2 | Dose-dependent effect | 77 | 37.2% | 16 | Active | – | – | –
15 | COc1cc(C2Oc3cc([C@H]4Oc5cc(O)cc(O)c5C(=O)[C@@H]4O)ccc3OC2COC(=O)c2ccc3c(c2)OCO3)ccc1O (relative stereo) | 31.7 | – | 108 | 7.3% | 20.8 | inactive | – | – | –
16 | COc1cc(C2Oc3cc([C@H]4Oc5cc(O)cc(O)c5C(=O)[C@@H]4O)ccc3OC2COC(=O)c2cccc(Cl)c2)ccc1O (some centres not stated) | 5.6 | – | 106 | 7% | 14.2 | Active | – | – | –
17 | O=C([O-])CN(CCN(CC(=O)[O-])CC(=O)O)CC(=O)O.[Na+].[Na+] [EDETATE DISODIUM ANHYDROUS] | – | – | 16.2 | – | – | – | – | – | –
